Laboratory results as given in ChEMBL document CHEMBL1121807, “Potential thyroliberin affinity labels. 1. Chloroacetyl-substituted phenylalanylpyrrolidines” (1981).

Tests used:
Rattus norvegicus [1] = organism: Rattus norvegicus; assay: Agonist activity relative to TRH (Thyroliberin) was evaluated in rat at a dose of 0.6 ng; format: functional
Rattus norvegicus [2] = organism: Rattus norvegicus; assay: Agonist activity relative to TRH (Thyroliberin) was evaluated in rat; None at a dose up to 30 ug; format: functional, organism-based
Rattus norvegicus [3] = organism: Rattus norvegicus; assay: Agonist activity relative to TRH (Thyroliberin) was evaluated in rat; none at a dose up to 30 ug; format: functional, organism-based
Rattus norvegicus [4] = organism: Rattus norvegicus; assay: Agonist activity relative to TRH (Thyroliberin) was evaluated in rat; format: functional

How did the Relative activity (Rattus norvegicus [1]) turn out when NC(=O)[C@@H]1CCCN1C(=O)[C@H](Cc1c[nH]cn1)NC(=O)[C@@H]1CCC(=O)N1 [PROTIRELIN] was run?
The Relative activity was 100%.

How did the Relative activity (Rattus norvegicus [2]) turn out when C[C@H](NC(=O)CCl)C(=O)N[C@@H](Cc1ccccc1)C(=O)N1CCCC1 was run?
Its Relative activity is “None”.

With O=C(CCl)NC(Cc1ccccc1)C(=O)N1CCCC1 (configuration not stated) as the compound, how does the Relative activity (Rattus norvegicus [2]) read?
Its Relative activity is “None”.

Which Relative activity (Rattus norvegicus [3]) does the source give for C[C@H](NC(=O)c1cccc(C(=O)CCl)c1)C(=O)N[C@@H](Cc1ccccc1)C(=O)N1CCCC1 here?
The Relative activity was “None”.

For O=C(CCl)c1cccc(C(=O)NC(Cc2ccccc2)C(=O)N2CCCC2)c1 (configuration not stated), which Relative activity (Rattus norvegicus [4]) is on record?
The Relative activity was 0.0012%.

With C[C@H](NC(=O)c1ccc(C(=O)CCl)cc1)C(=O)N[C@@H](Cc1ccccc1)C(=O)N1CCCC1 as the compound, how does the Relative activity (Rattus norvegicus [4]) read?
Its Relative activity is 0.005%.

How did the Relative activity (Rattus norvegicus [4]) turn out when O=C(CCl)c1ccc(C(=O)NC(Cc2ccccc2)C(=O)N2CCCC2)cc1 (configuration not stated) was run?
The Relative activity was 0.0006%.
